The source of these data is patent publication US11629139B2 (priority 2017, dated 2023).

One experiment deals with vesicular stomatitis virus particles (VSV) pseudotyped with EboV Zaire GP. Description: microbe, parasite or virus in culture. In kind it is cell-based. The following applies: Vesicular stomatitis virus.
For the compound `O=C(CC12CC3CC(CC(C3)C1)C2)NCC(=O)N1CCN(Cc2cc(Br)ccc2O)CC1` [Compound 1026], the IC50 was 300 to 500 nM.

With `COC(=O)c1ccc(COc2ccc(Br)cc2CN2CCN(C(=O)CNC(=O)CC34CC5CC(CC(C5)C3)C4)CC2)cc1` [Compound 1111], it took 13 nM to reach half-maximal inhibition (IC50).

Consider `COC(=O)c1ccc(COc2ccc(F)cc2CN2CCN(C(=O)CNC(=O)CC34CC5CC(CC(C5)C3)C4)CC2)cc1` [Compound 1112], for which the IC50 is less than 2000 nM.

The compound `COC(=O)c1ccc(COc2ccc([N+](=O)[O-])cc2CN2CCN(C(=O)CNC(=O)CC34CC5CC(CC(C5)C3)C4)CC2)cc1` [Compound 1113] returned a concentration for half-maximal inhibition (IC50) of less than 2000 nM.

In turn, `COC(=O)c1ccc(COc2ccc(C)cc2CN2CCN(C(=O)CNC(=O)CC34CC5CC(CC(C5)C3)C4)CC2)cc1` [Compound 1114] had an IC50 of less than 2000 nM.

Consider `COC(=O)c1ccc(COc2ccc(OC)cc2CN2CCN(C(=O)CNC(=O)CC34CC5CC(CC(C5)C3)C4)CC2)cc1` [Compound 1115], for which the half-maximal inhibitory concentration (IC50) came to 1400 nM.

In turn, `COC(=O)c1ccc(COc2ccc(C#N)cc2CN2CCN(C(=O)CNC(=O)CC34CC5CC(CC(C5)C3)C4)CC2)cc1` [Compound 1117] returned an IC50 of 50 nM.

As to `COC(=O)c1ccc(COc2ccc(Cl)cc2CN2CCN(C(=O)CNC(=O)CC34CC5CC(CC(C5)C3)C4)CC2)cc1` [Compound 1118], the IC50 turned out to be 1 nM.

`COC(=O)c1ccc(COc2ccccc2C(C)N2CCN(C(=O)CNC(=O)CC34CC5CC(CC(C5)C3)C4)CC2)cc1` (stereo not drawn) [Compound 1122] yielded a 50% inhibitory concentration (IC50) of roughly 2000 nM.

Compound `COC(=O)c1ccc(CCc2ccccc2CN2CCN(C(=O)CNC(=O)CC34CC5CC(CC(C5)C3)C4)CC2)cc1` [Compound 1123] registered an IC50 of 20 nM.

In turn, `O=C(Cc1cccc2ccccc12)NCC(=O)N1CCN(Cc2ccccc2OCc2ccc(Br)cc2)CC1` [Compound 1136] gave an IC50 greater than 2000 nM.

As to `CC(C)(CC(=O)NCC(=O)N1CCN(Cc2ccccc2OCc2ccc(Br)cc2)CC1)C1CCCCC1` [Compound 1138], the IC50 is greater than 2000 nM.

Consider `O=C(CC12CC3CC(C1)CC(c1ccccc1)(C3)C2)NCC(=O)N1CCN(Cc2ccccc2OCc2ccc(Br)cc2)CC1` [Compound 1141], for which it took 700 nM to reach half-maximal inhibition (IC50).

On to `CC1(CC(=O)NCC(=O)N2CCN(Cc3ccccc3OCc3ccc(Br)cc3)CC2)CCCCC1` [Compound 1142], for which the 50% inhibitory concentration (IC50) worked out at 520 nM.

For `O=C(CC12CC3CC(CC(Cl)(C3)C1)C2)NCC(=O)N1CCN(Cc2ccccc2OCc2ccc(Br)cc2)CC1` [Compound 1243], the IC50 was found to be 500 nM.

For the compound `O=C(CC12CC3CC(CC(O)(C3)C1)C2)NCC(=O)N1CCN(Cc2ccccc2OCc2ccc(Br)cc2)CC1` [Compound 1244], the half-maximal inhibitory concentration (IC50) came out at 500 nM.

As for `O=C(CC12CC3CC(CC(Br)(C3)C1)C2)NCC(=O)N1CCN(Cc2ccccc2OCc2ccc(Br)cc2)CC1` [Compound 1245], the IC50 was determined as 600 nM.

As for `O=C(CC12CC3CC(C1)CC(n1cncn1)(C3)C2)NCC(=O)N1CCN(Cc2ccccc2OCc2ccc(Br)cc2)CC1` [Compound 1246], the IC50 was less than 2000 nM.

For `O=C(CC12CC3CC(CC(C3)C1)C2)NCC(=O)N1CCN(Cc2cc(Cl)ccc2O)CC1` [Compound 1249, 2-((1R,3R,5S)-Adamantan-1-yl)-N-(2-(4-(5-chloro-2-hydroxybenzyl)piperazin-1-yl)-2-oxoethyl)acetamide], the IC50 worked out at 200 nM.

In the case of `Nc1ccc(CN2CCN(C(=O)CNC(=O)CC34CC5CC(CC(C5)C3)C4)CC2)cc1Cl` [Compound 1250], it took 800 nM to reach half-maximal inhibition (IC50).

On to `CN(C)c1ccc(CN2CCN(C(=O)CNC(=O)CC34CC5CC(CC(C5)C3)C4)CC2)cc1Cl` [Compound 1251], for which inhibition was half-maximal at 1700 nM (IC50).

The compound `Nc1cc(OCc2ccc(Br)cc2)c(CN2CCN(C(=O)CNC(=O)CC34CC5CC(CC(C5)C3)C4)CC2)cc1Cl` [Compound 1252] showed an IC50 of 800 nM.

`COC(=O)c1ccc(/C=C/c2ccccc2CN2CCN(C(=O)CNC(=O)CC34CC5CC(CC(C5)C3)C4)CC2)cc1` [Compound 1253] yielded an IC50 of 1500 nM.

Take `O=C(CNC(=O)C12CC3(F)CC(F)(CC(F)(C3)C1)C2)N1CCN(Cc2ccccc2OCc2ccc(Br)cc2)CC1` [Compound 1255]: the IC50 was 400 nM.

`CNS(=O)(=O)c1ccc(COc2ccccc2CN2CCN(C(=O)CNC(=O)CC34CC5CC(CC(C5)C3)C4)CC2)cc1` [Compound 1257] yielded an IC50 of 300 nM.

Consider `CN(C)S(=O)(=O)c1ccc(COc2ccccc2CN2CCN(C(=O)CNC(=O)CC34CC5CC(CC(C5)C3)C4)CC2)cc1` [Compound 1258], for which 400 nM corresponded to half-maximal inhibition (IC50).

`N#Cc1ccc(COc2ccccc2CN2CCN(C(=O)CNC(=O)CC34CC5CC(CC(C5)C3)C4)CC2)cc1` [Compound 1259] had a 50% inhibitory concentration (IC50) of 700 nM.

As for `NC(=O)c1ccc(COc2ccccc2CN2CCN(C(=O)CNC(=O)CC34CC5CC(CC(C5)C3)C4)CC2)cc1` [Compound 1260], it took 700 nM to reach half-maximal inhibition (IC50).

On to `COC(=O)c1ccc(COc2ccccc2CN2CCN(C(=O)CNC(=O)CC3CCC(F)(F)CC3)CC2)cc1` [Compound 1275, Methyl 4-((2-((4-((2-(4,4-difluorocyclohexyl)acetyl)glycyl)piperazin-1-yl)methyl)phenoxy)methyl)benzoate], for which the IC50 was found to be 50 nM.

`COC(=O)c1ccc(COc2ccccc2CN2CCN(C(=O)CNC(=O)CC34CC5CC(C3)CC(C(=O)O)(C5)C4)CC2)cc1` [Compound 1277, (1s,3r,5R,7S)-3-(2-((2-(4-(2-((4-(Methoxycarbonyl)benzyl)oxy)benzyl)piperazin-1-yl)-2-oxoethyl)amino)-2-oxoethyl)adamantane-1-carboxylic acid]: the IC50 was greater than 2000 nM.

Regarding `COC(=O)c1ccc(COc2ccccc2CN2CCN(C(=O)CNC(=O)CC(C)(C)C(F)(F)F)CC2)cc1` [Compound 1278, Methyl 4-((2-((4-((4,4,4-trifluoro-3,3-dimethylbutanoyl)glycyl)piperazin-1-yl)methyl)phenoxy)methyl)benzoate], the IC50 is greater than 2000 nM.

Take `COC(=O)c1ccc(COc2ccccc2CN2CCN(C(=O)CNC(=O)CC(C)(C)c3ccccc3)CC2)cc1` [Compound 1279]: the IC50 turned out to be 1500 nM.

`COC(=O)c1ccc(COc2ccccc2CN2CCN(C(=O)CNC(=O)C3CCC(F)(F)CC3)CC2)cc1` [Compound 1298]: the IC50 turned out to be 1500 nM.

With `CC(=O)N1CCC(COc2ccc(Cl)cc2CN2CCN(C(=O)CNC(=O)CC34CC5CC(CC(C5)C3)C4)CC2)CC1` [Compound 1301, N-(2-(4-(2-((1-acetylpiperidin-4-yl)methoxy)-5-chlorobenzyl)piperazin-1-yl)-2-oxoethyl)-2-((3r,5r,7r)-adamantan-1-yl)acetamide], the IC50 is 400 nM.

In turn, `COC(=O)COc1ccc(Cl)cc1CN1CCN(C(=O)CNC(=O)CC23CC4CC(CC(C4)C2)C3)CC1` [Compound 1302, Methyl 2-(2-((4-((2-((1R,3R,5S)-adamantan-1-yl)acetyl)glycyl)piperazin-1-yl)methyl)-4-chlorophenoxy)acetate] registered an IC50 greater than 2000 nM.

`COC(=O)CCCOc1ccc(Cl)cc1CN1CCN(C(=O)CNC(=O)CC23CC4CC(CC(C4)C2)C3)CC1` [Compound 1303, Methyl 4-(2-((4-((2-((1R,3R,5S)-Adamantan-1-yl)acetyl)glycyl)piperazin-1-yl)methyl)-4-chlorophenoxy)butanoate]: the IC50 is roughly 2000 nM.

In turn, `Nc1ncc(Cl)cc1CN1CCN(C(=O)CNC(=O)CC23CC4CC(CC(C4)C2)C3)CC1` [Compound 1304, 2-((1R,3R,5S)-Adamantan-1-yl)-N-(2-(4-((2-amino-5-chloropyridin-3-yl)methyl)piperazin-1-yl)-2-oxoethyl)acetamide] displayed an IC50 greater than 1500 nM.

`O=C(CC12CC3CC(CC(C3)C1)C2)NCC(=O)N1CCN(Cc2cc(Cl)ccc2F)CC1` [Compound 1305, 2-((1R,3R,5S)-Adamantan-1-yl)-N-(2-(4-(5-chloro-2-fluorobenzyl)piperazin-1-yl)-2-oxoethyl)acetamide]: the IC50 is 360 nM.

`O=C(CC12CC3CC(CC(C3)C1)C2)NCC(=O)N1CCN(Cc2c(F)ccc(Cl)c2F)CC1` [Compound 1306, 2-((1R,3R,5S)-Adamantan-1-yl)-N-(2-(4-(3-chloro-2,6-difluorobenzyl)piperazin-1-yl)-2-oxoethyl)acetamide] yielded a half-maximal inhibitory concentration (IC50) of 1350 nM.

Take `O=C(CC12CC3CC(CC(C3)C1)C2)NCC(=O)N1CCN(Cc2cc(Cl)c(F)cc2F)CC1` [Compound 1307, 2-((1R,3R,5S)-Adamantan-1-yl)-N-(2-(4-(5-chloro-2,4-difluorobenzyl)piperazin-1-yl)-2-oxoethyl)acetamide]: it took 370 nM to reach half-maximal inhibition (IC50).

In the case of `O=C(CC12CC3CC(CC(C3)C1)C2)NCC(=O)N1CCN(Cc2cc(Cl)ccc2OC(F)(F)F)CC1` [Compound 1309, 2-((1R,3R,5S)-Adamantan-1-yl)-N-(2-(4-(5-chloro-2-(trifluoromethoxy)benzyl)piperazin-1-yl)-2-oxoethyl)acetamide], it took 420 nM to reach half-maximal inhibition (IC50).

Take `COC(=O)c1cccc(-c2ccc(O)c(CN3CCN(C(=O)CNC(=O)CC45CC6CC(CC(C6)C4)C5)CC3)c2)c1` [Compound 1310, Methyl 3′-((4-((2-((1R,3R,5S)-adamantan-1-yl)acetyl)glycyl)piperazin-1-yl)methyl)-4′-hydroxy-[1,1′-biphenyl]-3-carboxylate]: the 50% inhibitory concentration (IC50) came out at 310 nM.

For `COC(=O)c1ccc(COc2ccccc2CN2CCN(C(=O)CNC(=O)CC3(C)CCCCC3)CC2)cc1` [Compound 1311, Methyl 4-((2-((4-((2-(1-methylcyclohexyl)acetyl)glycyl)piperazin-1-yl)methyl)phenoxy)methyl)benzoate], the IC50 was 80 nM.

Turning to `COC(=O)c1ccc(COc2ccccc2CN2CCN(C(=O)CNC(=O)Cc3ccc(F)cc3)CC2)cc1` [Compound 1312, Methyl 4-((2-((4-((2-(4-fluorophenyl)acetyl)glycyl)piperazin-1-yl)methyl)phenoxy)methyl)benzoate], it took 600 nM to reach half-maximal inhibition (IC50).

Staying with this experiment, now noted: read-out: IC50.
Consider `O=C(CC12CC3CC(CC(C3)C1)C2)NCC(=O)N1CCN(Cc2cc(Cl)ccc2C(F)(F)F)CC1` [Compound 1308, 2-((1R,3R,5S)-Adamantan-1-yl)-N-(2-(4-(5-chloro-2-(trifluoromethyl)benzyl)piperazin-1-yl)-2-oxoethyl)acetamide], for which the IC50 was greater than 2000 nM.
